Test systems include ACHN renal; BT-549 breast; CCRF-CEM leukemia; HCT-15 colon; HOP-92 NSCLC; HS 578T breast; IGROV1 ovarian; MALME-3M melanoma; MCF7 breast; MDA-MB-435; MOLT-4 leukemia; NCI-H23 lung; OVCAR-5 ovarian; RPMI-8226 leukemia; SK-MEL-2 melanoma; SK-MEL-28 melanoma; SN12C renal; SR leukemia; T-47D breast; U251 CNS.
Experiment in all cases: inhibition of tumour cell growth, NCI panel, 48 h

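Where inhibition never reached the appropriate level, the endpoint shown equals the highest concentration tested. Otherwise, values were interpolated linearly from a five-concentration, 48-hour dose response in 96-well plates. At the TGI there is no net growth.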 Bounds are passed on as bounds.

As to `CC(=O)NC1C(OC2C(CO)OC(OCC3OC(n4ccc(N)nc4=O)C(O)C3O)C(NC(C)=O)C2O)OC(CO)C(O)C1O` (stereo not drawn), the TGI in the experiment on ACHN renal, in the experiment on BT-549 breast, in the experiment on CCRF-CEM leukemia, in the experiment with HCT-15 colon, with HOP-92 NSCLC and with HS 578T breast was > 100 µM each time. Further, the TGI in the experiment on IGROV1 ovarian, with MALME-3M melanoma, in the experiment with MCF7 breast, in the experiment on MDA-MB-435, in the experiment on MOLT-4 leukemia and with NCI-H23 lung was > 100 µM each time. In addition, the TGI in the experiment on OVCAR-5 ovarian, in the experiment with RPMI-8226 leukemia, with SK-MEL-2 melanoma, in the experiment on SK-MEL-28 melanoma, in the experiment on SN12C renal and with SR leukemia was > 100 µM in each case. The TGI in the experiment with T-47D breast and with U251 CNS was > 100 µM throughout.
`O=[N+]([O-])c1ccc(N/N=C(\c2ccccc2)c2ccccn2)nc1`: the TGI with ACHN renal was 18.7 µM; in the experiment with BT-549 breast, 87.1 µM; with CCRF-CEM leukemia, > 91.5 µM; with HCT-15 colon, > 28.5 µM; in the experiment with HOP-92 NSCLC it was 43.8 µM; with HS 578T breast it was 26 µM. Moreover, the TGI was 20.5 µM in the experiment with IGROV1 ovarian; 14.4 µM with MALME-3M melanoma; 8.45 µM in the experiment with MCF7 breast; > 95.3 µM in the experiment on MDA-MB-435; > 67.2 µM with MOLT-4 leukemia; 14.9 µM in the experiment on NCI-H23 lung. Further, the TGI with OVCAR-5 ovarian is 85.1 µM; in the experiment with RPMI-8226 leukemia, > 100 µM; in the experiment with SK-MEL-2 melanoma it was > 94.9 µM; in the experiment on SK-MEL-28 melanoma, > 100 µM; with SN12C renal, > 68.9 µM; with SR leukemia, > 83.7 µM. The TGI was 26.9 µM in the experiment on T-47D breast and > 81.8 µM with U251 CNS.
For `COc1cc([C@H]2CC(=O)C[C@@H](c3cc(OC)c(OC)c(OC)c3)C23C(=O)c2ccccc2C3=O)cc(OC)c1OC`, the TGI in the experiment with ACHN renal, with BT-549 breast, in the experiment with CCRF-CEM leukemia, with HCT-15 colon, in the experiment with HOP-92 NSCLC and in the experiment with HS 578T breast was > 100 µM throughout. Moreover, the TGI in the experiment with IGROV1 ovarian, in the experiment with MALME-3M melanoma, in the experiment on MCF7 breast, in the experiment on MDA-MB-435, in the experiment on MOLT-4 leukemia and in the experiment on NCI-H23 lung was > 100 µM each time. The TGI in the experiment on OVCAR-5 ovarian, in the experiment on RPMI-8226 leukemia, with SK-MEL-2 melanoma, in the experiment on SK-MEL-28 melanoma, with SN12C renal and with SR leukemia was > 100 µM in each case. The TGI in the experiment on T-47D breast and in the experiment on U251 CNS was > 100 µM throughout.
Take `COc1cc(C2S/C(=C/c3ccccc3)C(=O)N2c2cc(Cl)c(Cl)cc2Cl)cc(OC)c1OC` (stereo not drawn): the TGI with ACHN renal was > 100 µM; with BT-549 breast it was > 74.4 µM; in the experiment with CCRF-CEM leukemia, > 88.9 µM; in the experiment on HCT-15 colon, > 100 µM; with HOP-92 NSCLC, > 74.6 µM; with HS 578T breast, > 57 µM. The TGI in the experiment with IGROV1 ovarian was > 100 µM; with MALME-3M melanoma, > 84.4 µM; with MCF7 breast it was > 100 µM; in the experiment with MDA-MB-435, > 100 µM; in the experiment with MOLT-4 leukemia, > 72.4 µM; with NCI-H23 lung, > 100 µM. The TGI is > 100 µM in the experiment on OVCAR-5 ovarian; > 62.4 µM with RPMI-8226 leukemia; > 100 µM in the experiment with SK-MEL-2 melanoma; > 100 µM with SK-MEL-28 melanoma; > 100 µM in the experiment on SN12C renal; > 69.4 µM in the experiment with SR leukemia. For the same compound, the TGI in the experiment on T-47D breast and with U251 CNS was > 100 µM throughout.
For the compound `COc1ccc2nc3cc([N+](=O)[O-])ccc3c(Nc3ccc(S(=O)(=O)N=C(N)N)cc3)c2c1`, the TGI is > 100 µM in the experiment on ACHN renal; > 100 µM with BT-549 breast; 36.5 µM in the experiment with CCRF-CEM leukemia; > 100 µM in the experiment on HCT-15 colon; 77.8 µM with HOP-92 NSCLC; > 100 µM in the experiment on HS 578T breast. The TGI in the experiment with MALME-3M melanoma is 28.5 µM; with MCF7 breast it was 96.4 µM; in the experiment with MDA-MB-435 it was > 100 µM; with MOLT-4 leukemia, 14.7 µM; in the experiment on NCI-H23 lung, > 100 µM; in the experiment on OVCAR-5 ovarian, > 100 µM. Besides, the TGI was 42.6 µM with RPMI-8226 leukemia; 44.4 µM in the experiment with SK-MEL-2 melanoma; > 100 µM in the experiment on SK-MEL-28 melanoma; > 100 µM in the experiment on SN12C renal; 4.68 µM in the experiment with SR leukemia; 88.7 µM with T-47D breast. Further, the TGI in the experiment on U251 CNS is > 100 µM.
Regarding `Clc1ccc(C2=C(c3ccccc3)C(c3ccc(Cl)cc3)N3C(=N[C@H]4CCCC[C@@H]43)N2)cc1` (stereo partly drawn), the TGI turned out to be 23.2 µM with ACHN renal; 28.6 µM in the experiment on BT-549 breast; 26 µM in the experiment on CCRF-CEM leukemia; 18.8 µM with HCT-15 colon; 21.4 µM in the experiment on HOP-92 NSCLC; 49.5 µM in the experiment with HS 578T breast. Further, the TGI in the experiment on IGROV1 ovarian came out at 26.6 µM; in the experiment on MALME-3M melanoma, 34.8 µM; with MCF7 breast it was 21.2 µM; in the experiment with MDA-MB-435, 27.6 µM; with MOLT-4 leukemia it was 22.7 µM; in the experiment on NCI-H23 lung, 28 µM. For the same compound, the TGI in the experiment on OVCAR-5 ovarian stood at 29.8 µM; with RPMI-8226 leukemia, 7.56 µM; with SK-MEL-2 melanoma, 29.9 µM; in the experiment on SK-MEL-28 melanoma, 26.5 µM; in the experiment with SR leukemia it was 5.56 µM; in the experiment on T-47D breast, 31.4 µM. In the experiment on U251 CNS, this compound returned a TGI of 23.3 µM.

Source of the values: PubChem BioAssay (NCI).
